Read-outs that look alike come from different tables or passages of the source.
Assays:
[1] = tested on: cefepime-nonsusceptible Enterobacterales isolates; parameters: method as in earlier work; details: taniborbactam fixed at 4 μg/ml in combination; cited from earlier work
[2] = tested on: E. coli DH5α producing individual β-lactamases; experiment: Broth microdilution MIC in engineered strains (BLI fixed at 4 μg/ml); assay type: cell-based, Escherichia coli
Protocol: The spectrum of antibacterial activity of cefepime-taniborbactam and the breadth of inhibitory activity of this next-generation cyclic boronate BLI were assessed in 34 engineered E. coli strains each overproducing an individual β-lactamase and directly compared to those of the clinically approved agent ceftazidime-avibactam. In this manner, the antibacterial activity of the BL-BLI combinations relative to that of the partnered cephalosporins alone provided a quantitative measure of β-lactam potentiation that directly reflects the levels of inhibition of β-lactamase function achieved by addition of BLI. The BLI concentration was fixed at 4 μg/ml, as described in Materials and Methods.
The isogenic strains were used to establish a spectrum of inhibitory activity against 34 β-lactamases that were engineered into E. coli DH5α cells carrying chromosomal AmpC (ESC-1), a non-ESBL enzyme unable to hydrolyze these third- or fourth-generation cephalosporins. […]. The DNA fragments containing the promoter, the signal sequence, and each β-lactamase-coding gene were synthesized and cloned into pTwist Chlor High Copy in DH5α at Twist Bioscience. The individual expression plasmids along with their GenBank accession numbers are listed in Table S2 in the supplemental material and below. The protein sequences of β-lactamases were obtained from the Beta-Lactamase DataBase (www.bldb.eu) ([47]). Expression of the β-lactamases was confirmed by verifying decreased susceptibility to example test antibiotics that are known substrates of the enzymes. E. coli DH5α carrying pTU501, which expressed only the TEM-1 signal sequence from the bla promoter, was used as a control. The plasmid sequences are available through GenBank (Table S2).
The in vitro antibacterial activity of the β-lactams alone or in combination with the BLIs was determined in cation-adjusted Mueller-Hinton broth (CAMHB) microdilution assays according to CLSI recommendations ([51]). […]. The inocula for the broth microdilution assays were prepared by the broth culture method ([51]). […]

[3] = tested on: P. aeruginosa clinical isolates; experiment: microbe, parasite or virus in culture; assay type: cell-based, Pseudomonas aeruginosa
Protocol: (§1) The antibacterial activity of the cephalosporins alone was included to ascertain the level of potentiation by the partnered BLI. BLIs were tested at a fixed concentration of 4 μg/ml in all combinations except cefepime-tazobactam, where tazobactam was fixed at a concentration of 8 μg/ml ([38]).
(§2) The in vitro antibacterial activity of the β-lactams alone or in combination with the BLIs was determined in cation-adjusted Mueller-Hinton broth (CAMHB) microdilution assays according to CLSI recommendations ([51]). […] The inocula for the broth microdilution assays were prepared by the broth culture method ([51]).

[4] = tested on: Enterobacterales clinical isolates; experiment: MIC distributions in panels of clinical isolates (MIC50, MIC90, % susceptible); assay type: cell-based
Protocol: as §1, §2

E. cloacae = experiment: microbe, parasite or virus in culture; assay type: cell-based
Protocol: as §1, §2

[5] = Escherichia coli, ACT-17 (class C)
[6] = Escherichia coli, ACT-C189 (P99 AmpC) (class C)
[7] = Escherichia coli, CMY-2 (class C)
[8] = Escherichia coli, CTX-M-2 (class A)
[9] = Escherichia coli, CTX-M-15 (class A)
[10] = Escherichia coli, GES-5 (class A)
[11] = Escherichia coli, GIM-1 (class B)
[12] = Escherichia coli, IMP-1 (class B)
[13] = Escherichia coli, KPC-2 (class A)
[14] = Escherichia coli, KPC-3(A177E/D179Y) (class A)
[15] = Escherichia coli, KPC-3(D179Y) (class A)
[16] = Escherichia coli, KPC-3(D179Y/T243M) (class A)
[17] = Escherichia coli, KPC-3(T243A) (class A)
[18] = Escherichia coli, KPC-3(V240G) (class A)
[19] = Escherichia coli, KPC-3 (class A)
[20] = Escherichia coli, NDM-1 (class B)
[21] = Escherichia coli, NDM-5 (class B)
[22] = Escherichia coli, NDM-7 (class B)
[23] = Escherichia coli, OXA-48 (class D)
[24] = Escherichia coli, OXA-162 (class D)
[25] = Escherichia coli, OXA-163 (class D)
[26] = Escherichia coli, OXA-181 (class D)
[27] = Escherichia coli, OXA-232 (class D)
[28] = Escherichia coli, PER-1 (class A)
[29] = Escherichia coli, PER-2 (class A)
[30] = Escherichia coli, SHV-5 (class A)
[31] = Escherichia coli, SPM-1 (class B)
[32] = Escherichia coli, TEM-10 (class A)
[33] = Escherichia coli, TEM-24 (class A)
[34] = Escherichia coli, TEM-72 (class A)
[35] = Escherichia coli, VEB-9 (class A)
[36] = Escherichia coli, VIM-1 (class B)
[37] = Escherichia coli, VIM-2 (class B)
[38] = Escherichia coli, VIM-4 (class B)
[39] = Escherichia coli, Vector control
[40] = Wild-type, basal level Class C and OprD downregulation with RND efflux upregulation (n=14)
[41] = Enterobacter cloacae, strain 20, p99 AmpC/CTX-M-27/SHV-12/ACT-2/TEM-135, read-out: MIC
[42] = Enterobacter cloacae, strain 116723, p99 AmpC/TEM-1/CTX-M-3, read-out: MIC
[43] = Enterobacter cloacae, strain 138212, p99 AmpC/SHV-71/TEM-1, read-out: MIC
[44] = Enterobacter cloacae, strain 874381, CTX-M-15, read-out: MIC
[45] = Enterobacter cloacae, strain 875134, TEM-1/CTX-M-3/DHA-1, read-out: MIC
[46] = Enterobacter cloacae, strain 891849, TEM-1, read-out: MIC
[47] = Enterobacter cloacae, strain 920937, VIM-1, read-out: MIC
[48] = Enterobacter cloacae, strain 937223, SHV-12/CTX-M-9/ACT-7, read-out: MIC
[49] = Enterobacter cloacae, strain 938772, TEM-OSBL/CTX-M-15/ACT-30, read-out: MIC
[50] = Enterobacter cloacae, strain 976004, OXA-48, read-out: MIC
[51] = Enterobacter cloacae, strain 1249072, TEM-OSBL(b)/VIM-1, read-out: MIC
[52] = Enterobacter cloacae, strain 1365477, TEM-OSBL(b)/VIM-1, read-out: MIC

SMILES: CO/N=C(\C(=O)N[C@@H]1C(=O)N2C(C(=O)[O-])=C(C[N+]3(C)CCCC3)CS[C@H]12)c1csc(N)n1 [FEP]
- MIC90 [1]: > 128 µg/mL
- MIC [2, 5]: 4 µg/mL
- MIC [2, 6]: 8 µg/mL
- MIC [2, 7]: 2 µg/mL
- MIC [2, 8]: 128 µg/mL
- MIC [2, 9]: 128 µg/mL
- MIC [2, 10]: 4 µg/mL
- MIC [2, 11]: 4 µg/mL
- MIC [2, 12]: 64 µg/mL
- MIC [2, 13]: 64 µg/mL
- MIC [2, 14]: 16 µg/mL
- MIC [2, 15]: 32 µg/mL
- MIC [2, 16]: 16 µg/mL
- MIC [2, 17]: 64 µg/mL
- MIC [2, 18]: 256 µg/mL
- MIC [2, 19]: 128 µg/mL
- MIC [2, 20]: 256 µg/mL
- MIC [2, 21]: 512 µg/mL
- MIC [2, 22]: 512 µg/mL
- MIC [2, 23]: 2 µg/mL
- MIC [2, 24]: 8 µg/mL
- MIC [2, 25]: 128 µg/mL
- MIC [2, 26]: 2 µg/mL
- MIC [2, 27]: 2 µg/mL
- MIC [2, 28]: 512 µg/mL
- MIC [2, 29]: 256 µg/mL
- MIC [2, 30]: 128 µg/mL
- MIC [2, 31]: 128 µg/mL
- MIC [2, 32]: 8 µg/mL
- MIC [2, 33]: 2 µg/mL
- MIC [2, 34]: 32 µg/mL
- MIC [2, 35]: 128 µg/mL
- MIC [2, 36]: 128 µg/mL
- MIC [2, 37]: 16 µg/mL
- MIC [2, 38]: 32 µg/mL
- MIC [2, 39]: 0.12 µg/mL

SMILES: Cn1c(N)c(NC(=O)NCCN)c[n+]1CC1=C(C(=O)O)N2C(=O)[C@@H](NC(=O)/C(=N\OC(C)(C)C(=O)[O-])c3nsc(N)n3)[C@H]2SC1 [TOL]
- % Susceptible isolates ([3]; GES/KPC/VIM carbapenemase producing (n = 17)): 0%
- % Susceptible isolates ([3]; PDC variants (n = 10)): 0%
- % Susceptible isolates [3, 40]: 85.7%
- % Susceptible isolates ([4]; ESBL (n = 20)): 0%
- % Susceptible isolates ([4]; KPC (n = 20)): 0%
- % Susceptible isolates ([4]; MBL (n = 20)): 0%
- % Susceptible isolates ([4]; Mixed Class A and C (n = 22)): 0%
- % Susceptible isolates ([4]; OXA-48/48-like (n = 20)): 5%
- MIC (E. cloacae; [41]): 32 µg/mL
- MIC (E. cloacae; [42]): 32 µg/mL
- MIC (E. cloacae; [43]): 32 µg/mL
- MIC (E. cloacae; Enterobacter cloacae, strain 847426, KPC, read-out: MIC): ≥ 256 µg/mL
- MIC (E. cloacae; [44]): ≥ 256 µg/mL
- MIC (E. cloacae; [45]): 64 µg/mL
- MIC (E. cloacae; [46]): 32 µg/mL
- MIC (E. cloacae; [47]): ≥ 256 µg/mL
- MIC (E. cloacae; [48]): 32 µg/mL
- MIC (E. cloacae; [49]): 128 µg/mL
- MIC (E. cloacae; [50]): ≥ 256 µg/mL
- MIC (E. cloacae; [51]): ≥ 256 µg/mL
- MIC (E. cloacae; [52]): ≥ 256 µg/mL
- MIC (E. cloacae; Enterobacter cloacae, strain CDC-0053, KPC-3/TEM-1, read-out: MIC): 128 µg/mL
- MIC (E. cloacae; Enterobacter cloacae, strain CDC-0163, KPC/CTX-M-1/ACT/MIR, read-out: MIC): 128 µg/mL

SMILES: CC(C)(O/N=C(\C(=O)N[C@@H]1C(=O)N2C(C(=O)[O-])=C(C[n+]3ccccc3)CS[C@H]12)c1csc(N)n1)C(=O)O [CAZ]
- % Susceptible isolates [3]: 0%
- % Susceptible isolates ([3]; PDC variants (n = 10)): 0%
- % Susceptible isolates [3, 40]: 35.7%
- % Susceptible isolates ([4]; ESBL (n = 20)): 15%
- % Susceptible isolates ([4]; KPC (n = 20)): 0%
- % Susceptible isolates ([4]; MBL (n = 20)): 0%
- % Susceptible isolates ([4]; Mixed Class A and C (n = 22)): 9.1%
- % Susceptible isolates ([4]; OXA-48/48-like (n = 20)): 15%
- MIC (E. cloacae): 64 µg/mL
- MIC (E. cloacae; [41]): ≥ 256 µg/mL
- MIC (E. cloacae; [42]): 128 µg/mL
- MIC (E. cloacae; [43]): 128 µg/mL
- MIC (E. cloacae; [44]): ≥ 256 µg/mL
- MIC (E. cloacae; [45]): 64 µg/mL
- MIC (E. cloacae; [46]): 128 µg/mL
- MIC (E. cloacae; [47]): ≥ 256 µg/mL
- MIC (E. cloacae; [48]): ≥ 256 µg/mL
- MIC (E. cloacae; [49]): 128 µg/mL
- MIC (E. cloacae; [50]): 128 µg/mL
- MIC (E. cloacae; [51]): ≥ 256 µg/mL
- MIC (E. cloacae; [52]): ≥ 256 µg/mL
- MIC [2, 5]: 8 µg/mL
- MIC [2, 6]: 256 µg/mL
- MIC [2, 7]: 512 µg/mL
- MIC [2, 8]: 32 µg/mL
- MIC [2, 9]: 128 µg/mL
- MIC [2, 10]: 64 µg/mL
- MIC [2, 11]: > 128 µg/mL
- MIC [2, 12]: 1020 µg/mL
- MIC [2, 13]: 64 µg/mL
- MIC [2, 14]: 1020 µg/mL
- MIC [2, 15]: 1020 µg/mL
- MIC [2, 16]: 1020 µg/mL
- MIC [2, 17]: 256 µg/mL
- MIC [2, 18]: 1020 µg/mL
- MIC [2, 19]: 512 µg/mL
- MIC [2, 20]: 1020 µg/mL
- MIC [2, 21]: > 1020 µg/mL
- MIC [2, 22]: > 1020 µg/mL
- MIC [2, 23]: 1 µg/mL
- MIC [2, 24]: 2 µg/mL
- MIC [2, 25]: 256 µg/mL
- MIC [2, 26]: 1 µg/mL
- MIC [2, 27]: 1 µg/mL
- MIC [2, 28]: 1020 µg/mL
- MIC [2, 29]: 1020 µg/mL
- MIC [2, 30]: 1020 µg/mL
- MIC [2, 31]: 1020 µg/mL
- MIC [2, 32]: 1020 µg/mL
- MIC [2, 33]: 1020 µg/mL
- MIC [2, 34]: 1020 µg/mL
- MIC [2, 35]: 1020 µg/mL
- MIC [2, 36]: 1020 µg/mL
- MIC [2, 37]: 128 µg/mL
- MIC [2, 38]: 256 µg/mL
- MIC [2, 39]: 0.25 µg/mL
- MIC ([2]; Vector control): 0.5 µg/mL

Reference: paper PMC7038240 (Antimicrobial Agents and Chemotherapy, 2020)
